Key:
Assay type in all cases: in vivo
Triticum aestivum = test: Post-emergence crop plant compatibility
Procedure: (§1) Seeds of monocotyledonous and dicotyledonous weeds and crop plants were placed in sandy loam in plastic or wood-fiber pots, covered with soil and cultivated in a greenhouse under controlled growth conditions. 2 to 3 weeks after sowing, the test plants were treated at the one-leaf stage. The compounds of the invention, formulated in the form of wettable powders (WP) or as emulsion concentrates (EC), were then sprayed onto the green parts of the plants as aqueous suspension or emulsion with addition of 0.5% additive at a water application rate of […] (converted). After the test plants had been kept in the greenhouse under optimum growth conditions for about 3 weeks, the activity of the preparations was rated visually in comparison to untreated controls. For example, 100% activity=the plants have died, 0% activity=like control plants.
(§2) Here, the observed effects on selected crop plants are stated in comparison to the untreated controls (values in %).

Oryza sativa = test: Post-emergence crop plant compatibility
Procedure: as §1, §2

Veronica persica = test: Post-emergence herbicidal action
Procedure: as §1, with “plants. Tables A1 to A14 below show the effects of selected compounds of the general formula (I) according to Tables I.1 to I.34 on various harmful plants and at an application rate corresponding to 20 g/ha and less, which were obtained by the experimental procedure mentioned above.” for “plants.”

Matricaria inodora = test: Post-emergence herbicidal action
Procedure: as §1, with “plants. Tables A1 to A14 below show the effects of selected compounds of the general formula (I) according to Tables I.1 to I.34 on various harmful plants and at an application rate corresponding to 20 g/ha and less, which were obtained by the experimental procedure mentioned above.” for “plants.”

Viola tricolor = test: Post-emergence herbicidal action
Procedure: as §1, with “plants. Tables A1 to A14 below show the effects of selected compounds of the general formula (I) according to Tables I.1 to I.34 on various harmful plants and at an application rate corresponding to 20 g/ha and less, which were obtained by the experimental procedure mentioned above.” for “plants.”

Alopecurus myosuroides = test: Post-emergence herbicidal action
Procedure: as §1, with “plants. Tables A1 to A14 below show the effects of selected compounds of the general formula (I) according to Tables I.1 to I.34 on various harmful plants and at an application rate corresponding to 20 g/ha and less, which were obtained by the experimental procedure mentioned above.” for “plants.”

Avena fatua = test: Post-emergence herbicidal action; details: application rate 20 g/ha
Procedure: as §1, with “plants. Tables A1 to A14 below show the effects of selected compounds of the general formula (I) according to Tables I.1 to I.34 on various harmful plants and at an application rate corresponding to 20 g/ha and less, which were obtained by the experimental procedure mentioned above.” for “plants.”

Pharbitis purpurea = test: Post-emergence herbicidal action
Procedure: as §1, with “plants. Tables A1 to A14 below show the effects of selected compounds of the general formula (I) according to Tables I.1 to I.34 on various harmful plants and at an application rate corresponding to 20 g/ha and less, which were obtained by the experimental procedure mentioned above.” for “plants.”

Abutilon theophrasti = test: Post-emergence herbicidal action
Procedure: as §1, with “plants. Tables A1 to A14 below show the effects of selected compounds of the general formula (I) according to Tables I.1 to I.34 on various harmful plants and at an application rate corresponding to 20 g/ha and less, which were obtained by the experimental procedure mentioned above.” for “plants.”

Amaranthus retroflexus = test: Post-emergence herbicidal action
Procedure: as §1, with “plants. Tables A1 to A14 below show the effects of selected compounds of the general formula (I) according to Tables I.1 to I.34 on various harmful plants and at an application rate corresponding to 20 g/ha and less, which were obtained by the experimental procedure mentioned above.” for “plants.”

Echinochloa crus-galli = test: Post-emergence herbicidal action
Procedure: as §1, with “plants. Tables A1 to A14 below show the effects of selected compounds of the general formula (I) according to Tables I.1 to I.34 on various harmful plants and at an application rate corresponding to 20 g/ha and less, which were obtained by the experimental procedure mentioned above.” for “plants.”

Setaria viridis = test: Post-emergence herbicidal action; details: 504 h, read-out: Setaria viridis (efficacy in %)
Procedure: as §1, with “plants. Tables A1 to A14 below show the effects of selected compounds of the general formula (I) according to Tables I.1 to I.34 on various harmful plants and at an application rate corresponding to 20 g/ha and less, which were obtained by the experimental procedure mentioned above.” for “plants.”

Polygonum convolvulus = test: Post-emergence herbicidal action; details: Fallopia convolvulus, 504 h, read-out: Polygonum convolvulus (efficacy in %)
Procedure: as §1, with “plants. Tables A1 to A14 below show the effects of selected compounds of the general formula (I) according to Tables I.1 to I.34 on various harmful plants and at an application rate corresponding to 20 g/ha and less, which were obtained by the experimental procedure mentioned above.” for “plants.”

Digitaria sanguinalis = test: Post-emergence herbicidal action; details: 504 h, read-out: Digitaria sanguinalis (efficacy in %)
Procedure: as §1, with “plants. Tables A1 to A14 below show the effects of selected compounds of the general formula (I) according to Tables I.1 to I.34 on various harmful plants and at an application rate corresponding to 20 g/ha and less, which were obtained by the experimental procedure mentioned above.” for “plants.”

Row | SMILES | Triticum aestivum (efficacy in %) (Triticum aestivum; application rate 1.25 g/ha) | Oryza sativa (efficacy in %) (Oryza sativa; application rate 1.25 g/ha) | Veronica persica (efficacy in %) (Veronica persica; application rate 5 g/ha) | Veronica persica (efficacy in %) (Veronica persica; application rate 20 g/ha) | Matricaria inodora (efficacy in %) (Matricaria inodora; application rate 5 g/ha) | Matricaria inodora (efficacy in %) (Matricaria inodora; application rate 20 g/ha) | Viola tricolor (efficacy in %) (Viola tricolor; application rate 5 g/ha) | Viola tricolor (efficacy in %) (Viola tricolor; application rate 20 g/ha) | Alopecurus myosuroides (efficacy in %) (Alopecurus myosuroides; application rate 5 g/ha) | Alopecurus myosuroides (efficacy in %) (Alopecurus myosuroides; application rate 20 g/ha) | Pharbitis purpurea (efficacy in %) (Pharbitis purpurea; application rate 5 g/ha) | Abutilon theophrasti (efficacy in %) (Abutilon theophrasti; application rate 5 g/ha) | Abutilon theophrasti (efficacy in %) (Abutilon theophrasti; application rate 20 g/ha) | Amaranthus retroflexus (efficacy in %) (Amaranthus retroflexus; application rate 5 g/ha) | Amaranthus retroflexus (efficacy in %) (Amaranthus retroflexus; application rate 20 g/ha) | Oryza sativa (efficacy in %) (Oryza sativa; application rate 5 g/ha) | Echinochloa crus-galli (efficacy in %) (Echinochloa crus-galli; application rate 5 g/ha) | Echinochloa crus-galli (efficacy in %) (Echinochloa crus-galli; application rate 20 g/ha) | Pharbitis purpurea (efficacy in %) (Pharbitis purpurea; application rate 20 g/ha) | further results
1 | Nn1c(C(F)(F)F)cc(=O)n(-c2cc(Sc3cccnc3OCC(=O)OCc3ccccn3)c(Cl)cc2F)c1=O [I.1-286] | 20% | 0% | 100% | 100% | 100% | 100% | 100% | 100% | 100% | 100% | 100% | 100% | 100% | 100% | 100% |  |  |  |  | Avena fatua (efficacy in %) (Avena fatua): 80%
2 | CCCCOC(=O)COc1ncccc1Sc1cc(-n2c(=O)cc(C(F)(F)F)n(N)c2=O)c(F)cc1Cl [I.1-447, n-Butyl {[3-({5-[3-amino-2,6-dioxo-4-(trifluoromethyl)-3,6-dihydropyrimidin-1(2H)-yl]-2-chloro-4-fluorophenyl}sulfanyl)pyridin-2-yl]oxy}acetate] | 10% | 0% |  |  |  |  |  |  | 80% | 90% |  |  |  |  |  | 10% |  |  |  | pest or weed control at 5 g/ha (Veronica persica; Veronica persica, 504 h, application rate 5 g/ha, read-out: Veronica persica (efficacy in %)): 100%; pest or weed control at 20 g/ha (Veronica persica; Veronica persica, 504 h, application rate 20 g/ha, read-out: Veronica persica (efficacy in %)): 100%; pest or weed control at 5 g/ha (Matricaria inodora; Tripleurospermum inodorum, 504 h, application rate 5 g/ha, read-out: Matricaria inodora (efficacy in %)): 100%; pest or weed control at 20 g/ha (Matricaria inodora; Tripleurospermum inodorum, 504 h, application rate 20 g/ha, read-out: Matricaria inodora (efficacy in %)): 100%; pest or weed control at 5 g/ha (Viola tricolor; Viola tricolor, 504 h, application rate 5 g/ha, read-out: Viola tricolor (efficacy in %)): 100%; pest or weed control at 20 g/ha (Viola tricolor; Viola tricolor, 504 h, application rate 20 g/ha, read-out: Viola tricolor (efficacy in %)): 100%; pest or weed control at 5 g/ha (Echinochloa crus-galli; Echinochloa crus-galli, 504 h, application rate 5 g/ha, read-out: Echinochloa crus-galli (efficacy in %)): 100%; pest or weed control at 20 g/ha (Echinochloa crus-galli; Echinochloa crus-galli, 504 h, application rate 20 g/ha, read-out: Echinochloa crus-galli (efficacy in %)): 100%; pest or weed control at 5 g/ha (Pharbitis purpurea; Ipomoea purpurea, 504 h, application rate 5 g/ha, read-out: Pharbitis purpurea (efficacy in %)): 100%; pest or weed control at 20 g/ha (Pharbitis purpurea; Ipomoea purpurea, 504 h, application rate 20 g/ha, read-out: Pharbitis purpurea (efficacy in %)): 100%; pest or weed control at 5 g/ha (Abutilon theophrasti; Abutilon theophrasti, 504 h, application rate 5 g/ha, read-out: Abutilon theophrasti (efficacy in %)): 100%; pest or weed control at 20 g/ha (Abutilon theophrasti; Abutilon theophrasti, 504 h, application rate 20 g/ha, read-out: Abutilon theophrasti (efficacy in %)): 100%; pest or weed control at 5 g/ha (Amaranthus retroflexus; Amaranthus retroflexus, 504 h, application rate 5 g/ha, read-out: Amaranthus retroflexus (efficacy in %)): 100%; pest or weed control at 20 g/ha (Amaranthus retroflexus; Amaranthus retroflexus, 504 h, application rate 20 g/ha, read-out: Amaranthus retroflexus (efficacy in %)): 100%; pest or weed control at 5 g/ha (Setaria viridis; application rate 5 g/ha): 100%; pest or weed control at 20 g/ha (Setaria viridis; application rate 20 g/ha): 100%; pest or weed control at 5 g/ha (Polygonum convolvulus; application rate 5 g/ha): 100%; pest or weed control at 20 g/ha (Polygonum convolvulus; application rate 20 g/ha): 100%; pest or weed control at 5 g/ha (Digitaria sanguinalis; application rate 5 g/ha): 100%; pest or weed control at 20 g/ha (Digitaria sanguinalis; application rate 20 g/ha): 100%
3 | CCOC(=O)COc1ncc(F)cc1Sc1cc(-n2c(=O)cc(C(F)(F)F)n(N)c2=O)c(F)cc1Cl [I.31-442] | 10% | 0% | 100% | 100% |  | 100% | 100% | 100% | 80% | 90% | 80% | 100% | 100% | 100% | 100% | 10% | 90% | 90% | 100% | Triticum aestivum (efficacy in %) (Triticum aestivum; application rate 5 g/ha): 20%
4 | Nn1c(C(F)(F)F)cc(=O)n(-c2cc(Sc3cccnc3OCC(=O)OC3COC3)c(Cl)cc2F)c1=O [I.1-115] | 20% |  | 100% | 100% | 100% | 100% | 100% | 100% | 80% | 100% | 100% | 90% | 100% | 100% | 100% |  | 90% | 100% | 100% | 
